The test system of this experiment is patients with heart failure and left ventricular ejection fraction ≥40% (HFmrEF/HFpEF). It counts as in vivo. The following applies: bilirubin Tertile 1 ≤0.4 mg/dL; N = 957.

Take `CCOc1ncc(C)c2c1[C@H](c1ccc(C#N)cc1OC)C(C(N)=O)=C(C)N2` [finerenone, (4S)-4-(4-cyano-2-methoxyphenyl)-5-ethoxy-2,8-dimethyl-1,4-dihydro-1,6-naphthyridine-3-carboxamide]: the “Total worsening HF events, event rate” value is recorded as 12.4 per 100 PY.

For the origin of these results see patent US20260272900A1 (Bayer Aktiengesellschaft, priority 2024, published 2026).
